Assay results taken from patent US11793983B2, “Sonodynamic therapy using microbubbles and pulsed wave ultrasound methods and systems” (University of Pittsburgh-Of the Commonwealth System of …, priority 2017, dated 2023).

Tested on: Mouse squamous cell carcinoma cells SCC-VII
Assay: Cytotoxicity in vitro with ultrasound, alamarBlue cell viability assay
Assay type: cell-based
Settings: +US, ISAPA=1 W/cm^2, 10% duty cycle, 2 min, 24 hours after treatment
Procedure: Mouse squamous cell carcinoma cells SCC-VII were cultured in RPMI 1640 medium supplemented with 10% fetal bovine serum (FBS), […] and 200 IU/mL penicillin (Gibco, ThermoFisher Scientific, Waltham, Mass.). Cells were harvested and suspended in a concentration of 1×10^6 cells/mL using serum free RPMI-1640 medium. Every 2 mL of cell suspension was transferred to 14 mL Falcon round-bottom polystyrene tubes. Immediately before the US treatment, the suspension was supplemented together with various concentrations of MBPpIX. US (1 MHz, 10% duty cycle) exposure time for each acoustic condition is 2 min. During exposure, the sample tube was gently shaking occasionally (every 10 sec) to improve mixing and to provide uniform exposure. Free PpIX (first dissolved in DMSO; final concentration: 2.9 μM) or PpIX liposome (precursor of MBPpIX, with equivalent PpIX concentration of 2.9 μM) were used for comparison and cells not treated were used as controls (NT). After treatment procedure, 300 μL of the cell suspension was transferred to a 24 well plate prefilled with 2 mL cell culture medium, and the cells were incubated at 37° C. for 24 hours. Cell viability was then measured using alamarBlue cell viability assay. Cell morphology was examined with bright field microscopy (IX81, Olympus, Center Valley, Pa.). […]

With `C=CC1=C(C)c2cc3[nH]c(cc4nc(cc5[nH]c(cc1n2)c(C)c5CCC(=O)O)C(CCC(=O)O)=C4C)c(C)c3C=C` [PpIX, protoporphyrin IX] the cell viability was 4±3%.
